Source: PMC7838546, “A Thermostable, Modified Cathelicidin-Derived Peptide With Enhanced Membrane-Active Activity Against Salmonella enterica serovar Typhimurium” (Frontiers in Microbiology, 2021)
Ends that are not written are not given here.

Columns and labels:
[1] = test system: Salmonella enterica serovar Typhimurium ATCC 13311; assay type: cell-based; conditions: ATCC 13311, standard strain, triplicate; for MIC: broth microdilution, ~10^7 CFU/ml, 37°C, 24 h
Protocol: (§1) Salmonella enterica serovar Typhimurium ATCC 13311, 24 drug-resistant foodborne and eleven drug-resistant human borne S. enterica serovar Typhimurium and 4,5,12:i:- isolates (Table 1) were used as test microorganisms. They were previously isolated for molecular characterization in 2014 and kindly provided by Dr. Soraya Chaturongakul (Mahidol University, Thailand) ([Huoy et al., 2014]). All bacteria were cultured in Tryptic Soy Broth (TSB) and incubated at 37°C for 18 h. Mueller Hinton Broth (MHB) was then used to wash and rinse the bacteria. The bacterial suspensions were then diluted to obtain concentrations of 10^7 CFU/ml for inoculations.
(§2) A modified version of the National Committee for Clinical Laboratory Standards (NCCLS) broth microdilution method ([Steinberg et al., 1997]) was used to determine the minimum inhibitory concentrations (MICs) of peptide and compared to that of nisin. Fifty microliters of two-fold serial dilutions of each peptide [0.98–250 μg/ml in 0.01% (v/v) acetic acid and 0.2% (w/v) bovine serum albumin (BSA, Sigma-Aldrich, MO, United States)], were incubated with 50 μl of bacterial suspensions (approximately 10^7 CFU/ml) at 37°C for 24 h in a shaking incubator. MICs were taken as the lowest concentration of peptide at which growth was inhibited as observed by visual inspection. Bacterial cultures without peptides and uncultured broth were used as positive and negative controls, respectively. Minimal bactericidal concentrations (MBCs) were determined using a colony count assay ([Clinical Laboratory Standards Institute [CLSI], 2015]). Fifty microliters of samples from each non-turbid well in the MIC determination experiment was plated on Mueller Hinton Agar (MHA) and colonies were observed after overnight incubation at 37°C. MBCs were designated as the least concentration showing no colony growth on the plate. All of experiments were performed in triplicate.

[2] = test system: S. enterica serovar 4,5,12:i:- H2-045 (foodborne isolate); assay type: cell-based, Salmonella enterica serovar 4,5,12:i:-; conditions: H2-045, pork intestine, resistant Amp, T, intermediate Cp; for MIC: broth microdilution, 37°C, 24 h
Protocol: as §1, §2

[3] = test system: S. enterica serovar 4,5,12:i:- H2-010 (foodborne isolate); assay type: cell-based, Salmonella enterica serovar 4,5,12:i:-; conditions: H2-010, pork skin, resistant Amp, C, T, broth microdilution, 37°C, 24 h
Protocol: as §1, §2

[4] = test system: S. enterica serovar 4,5,12:i:- H1-102 (clinical isolate); assay type: cell-based, Salmonella enterica serovar 4,5,12:i:-; conditions: H1-102, stool, resistant Amp, C, T, SxT, intermediate Amc; for MIC: broth microdilution, 37°C, 24 h
Protocol: as §1, §2

[5] = test system: S. enterica serovar 4,5,12:i:- H2-075 (foodborne isolate); assay type: cell-based, Salmonella enterica serovar 4,5,12:i:-; conditions: H2-075, pork intestine, resistant Amp, T; for MIC: broth microdilution, 37°C, 24 h
Protocol: as §1, §2

[6] = test system: S. enterica serovar 4,5,12:i:- H2-049 (foodborne isolate); assay type: cell-based, Salmonella enterica serovar 4,5,12:i:-; conditions: H2-049, pork intestine, resistant Amp, T, broth microdilution, 37°C, 24 h
Protocol: as §1, §2

[7] = test system: S. enterica serovar 4,5,12:i:- H2-038 (foodborne isolate); assay type: cell-based, Salmonella enterica serovar 4,5,12:i:-; conditions: H2-038, pork kidney, resistant Amp, T; for MIC: broth microdilution, 37°C, 24 h
Protocol: as §1, §2

[8] = test system: S. enterica serovar 4,5,12:i:- H2-043 (foodborne isolate); assay type: cell-based, Salmonella enterica serovar 4,5,12:i:-; conditions: H2-043, pork heart, resistant Amp, T, intermediate Cp; for MIC: broth microdilution, 37°C, 24 h
Protocol: as §1, §2

[9] = test system: S. enterica serovar 4,5,12:i:- H1-024 (clinical isolate); assay type: cell-based, Salmonella enterica serovar 4,5,12:i:-; conditions: H1-024, rectal swab, resistant Amc, Amp, Ctx, C, NA, SxT, intermediate Cp; for MIC: broth microdilution, 37°C, 24 h
Protocol: as §1, §2

[10] = test system: S. enterica serovar 4,5,12:i:- H2-039 (foodborne isolate); assay type: cell-based, Salmonella enterica serovar 4,5,12:i:-; conditions: H2-039, pork intestine, resistant Amp, T; for MIC: broth microdilution, 37°C, 24 h
Protocol: as §1, §2

[11] = test system: S. enterica serovar 4,5,12:i:- H1-100 (clinical isolate); assay type: cell-based, Salmonella enterica serovar 4,5,12:i:-; conditions: H1-100, stool, resistant Amp, C, Cp, T, SxT, intermediate Amc, NA; for MIC: broth microdilution, 37°C, 24 h
Protocol: as §1, §2

[12] = test system: S. enterica serovar 4,5,12:i:- H2-054 (foodborne isolate); assay type: cell-based, Salmonella enterica serovar 4,5,12:i:-; conditions: H2-054, pork intestine, resistant Amp, T; for MIC: broth microdilution, 37°C, 24 h
Protocol: as §1, §2

[13] = test system: S. enterica serovar 4,5,12:i:- H2-042 (foodborne isolate); assay type: cell-based, Salmonella enterica serovar 4,5,12:i:-; conditions: H2-042, pork intestine, resistant Amp, C, T, SxT, intermediate Cp; for MIC: broth microdilution, 37°C, 24 h
Protocol: as §1, §2

[14] = test system: S. enterica serovar 4,5,12:i:- H2-070 (foodborne isolate); assay type: cell-based, Salmonella enterica serovar 4,5,12:i:-; conditions: H2-070, pork liver, resistant Amp, Ctx, C, T, SxT, intermediate Cp; for MIC: broth microdilution, 37°C, 24 h
Protocol: as §1, §2

[15] = test system: S. enterica serovar 4,5,12:i:- H2-009 (foodborne isolate); assay type: cell-based, Salmonella enterica serovar 4,5,12:i:-; conditions: H2-009, pork fat, resistant Amp, C, T, broth microdilution, 37°C, 24 h
Protocol: as §1, §2

[16] = test system: S. enterica serovar Typhimurium H1-011 (clinical isolate); assay type: cell-based, Salmonella enterica serovar Typhimurium; conditions: H1-011, stool, resistant Amp, T, intermediate Amc, Ctx, Cp, NA; for MIC: broth microdilution, 37°C, 24 h
Protocol: as §1, §2

Substance | MIC [1] | MIC [2] | MIC [3] [mg/L] | MIC [4] | MIC [5] | MIC [6] [mg/L] | MIC [7] | MIC [8] | MIC [9] | MIC [10] | MIC [11] | MIC [12] | MIC [13] | MIC [14] | MIC [15] [mg/L] | MIC [16] | also measured
Nisin: authorized food preservative peptide, binds lipid II and forms membrane pores (ITSISLCTPGCKTGALMGCNMKTATCHCSIHVSK; cysteine pairing not given here; also: lantibiotic nisin-A; UniProt P13068 24-57, looked up) | >1000 µg/mL | >1000 µg/mL | >1000 | >1000 µg/mL | >1000 µg/mL | >1000 | >1000 µg/mL | >1000 µg/mL | >1000 µg/mL | >1000 µg/mL | >1000 µg/mL | >1000 µg/mL | >1000 µg/mL | >1000 µg/mL | >1000 | >1000 µg/mL | 
KIAKRIWKILRR-NH2 [P7] | 3.91 (3.91) μg/ml | 7.81 (7.81) μg/ml | 3.91 | 7.81 (7.81) μg/ml | 7.81 (7.81) μg/ml | 3.91 | 7.81 (7.81) μg/ml | 7.81 (7.81) μg/ml | 3.91 (3.91) μg/ml | 3.91 (3.91) μg/ml | 7.81 (7.81) μg/ml | 7.81 (7.81) μg/ml | 7.81 (7.81) μg/ml | 7.81 (7.81) μg/ml | 3.91 | 7.81 (7.81) μg/ml | MBC ([1]; colony count on MHA): 3.91 (3.91) μg/ml; MBC ([2]; colony count on MHA): 7.81 (7.81) μg/ml; MBC ([4]; colony count on MHA): 7.81 (7.81) μg/ml; MBC ([5]; colony count on MHA): 7.81 (7.81) μg/ml; MBC ([7]; colony count on MHA): 7.81 (7.81) μg/ml; MBC ([8]; colony count on MHA): 7.81 (7.81) μg/ml; MBC ([9]; colony count on MHA): 3.91 (3.91) μg/ml; MBC ([10]; colony count on MHA): 3.91 (3.91) μg/ml; MBC ([11]; colony count on MHA): 7.81 (7.81) μg/ml; MBC ([12]; colony count on MHA): 7.81 (7.81) μg/ml; MBC ([13]; colony count on MHA): 7.81 (7.81) μg/ml; MBC ([14]; colony count on MHA): 7.81 (7.81) μg/ml; MBC ([16]; colony count on MHA): 7.81 (7.81) μg/ml
